This assay has as its target LSD1 (Homo sapiens, UniProt O60341). Nature of the assay: LSD1 fluorescence coupling enzyme assay (HRP/Amplex Red), 10-dose IC50 mode. The format is biochemical. To be noted: 10-dose IC50 mode, 3-fold serial dilution in duplicate starting at 100 μM; 10 μM histone H3(1-21)K4me2 peptide substrate; read-out: RB LSD1 ave. As to the method: Compounds were tested in a 10-dose IC50 mode fluorescence coupling enzyme assay with 3-fold serial dilution in duplicate starting at 100 μM. The production of FAD-dependent H2O2 as a result of demethylase activity of LSD1 on 10 μM histone H3(1-21)K4me2 peptide substrate was measured by coupling with HRP and Amplex Red to yield resorufin (fluorescence measured at Ex/Em=535/590 nm on EnVision, Perkin Elmer).
On to `CN1CCN(c2nc(CCCN[C@@H]3C[C@H]3c3ccc(F)cc3)c[nH]c2=O)CC1` [Example 2, 5-[3-([(1R,2S)-2-(4-fluorophenyl)cyclopropyl]amino)propyl] 3-[4-methylpiperazin-1-yl]-pyrazin-2(1H)-one], for which the IC50 was 28 nM.

With `CS(=O)(=O)N1CCN(c2nc(CCCN[C@@H]3C[C@H]3c3ccc(F)cc3)c[nH]c2=O)CC1` [Example 3, 5-[3-([(1R,2S)-2-(4-fluorophenyl)cyclopropyl]amino)propyl]-3-[4-(methylsulfonyl)piperazin-1-yl]pyrazin-2(1H)-one], the IC50 stood at 7 nM.

On to `O=c1[nH]cc(CCCN[C@@H]2C[C@H]2c2ccc(F)cc2)nc1N1CCOCC1` [Example 4, 5-[3-([(1R,2S)-2-(4-fluorophenyl)cyclopropyl]amino)propyl]-3-morpholinopyrazin-2(1H)-one], for which the IC50 came out at 7 nM.

As to `O=c1[nH]cc(CCCN[C@@H]2C[C@H]2c2ccc(F)cc2)nc1N1CCC1` [Example 5, 3-[Azetidin-1-yl]-5-[3-([(1R,2S)-2-(4-fluorophenyl)cyclopropyl]amino)propyl]-pyrazin-2(1H)-one], the IC50 was found to be 12 nM.

Turning to `O=c1c(N2CCS(=O)(=O)CC2)nc(CCCN[C@@H]2C[C@H]2c2ccc(F)cc2)cn1C1CC1` [Example 8, 1-Cyclopropyl-3-[1,1-dioxidothiomorpholino]-5-[3-([(1R,2S)-2-(4-fluorophenyl)cyclopropyl]amino)propyl]pyrazin-2(1H)-one], the IC50 is 48 nM.

Consider `O=c1[nH]cc(CCCN[C@@H]2C[C@H]2c2ccccc2)nc1N1CCS(=O)(=O)CC1` [Example 9, 3-(1,1-Dioxidothiomorpholino)-5-(3-(((1R,2S)-2-phenylcyclopropyl)amino)propyl)pyrazin-2(1H)-one], for which the IC50 amounted to 6 nM.

With `O=C(O)C1CCN(c2nc(CCCN[C@@H]3C[C@H]3c3ccc(F)cc3)c[nH]c2=O)CC1` [Example 10, 1-[6-(3-[([1R,2S]-2-[4-fluorophenyl]cyclopropyl)amino]propyl)-3-oxo-3,4-dihydropyrazin-2-yl]piperidine-4-carboxylic acid], the IC50 amounted to 300 nM.

Consider `CN(C)S(=O)(=O)c1ccc(-n2cc(CCCN[C@@H]3C[C@H]3c3ccc(F)cc3)nc(N3CCNCC3)c2=O)cc1` [Example 14, 4-[5-(3-[([1R,2S]-2-[4-fluorophenyl]cyclopropyl)amino]propyl)-2-oxo-3-(piperazin-1-yl)pyrazin-1(2H)-yl]-N,N-dimethylbenzenesulfonamide], for which the IC50 was found to be 10 nM.

Take `O=c1c(N2CCNCC2)nc(CCCN[C@@H]2C[C@H]2c2ccc(F)cc2)cn1-c1ccc(F)cc1` [Example 26, 1-[4-Fluorophenyl]-5-[3-([(1R,2S)-2-(4-fluorophenyl)cyclopropyl]amino)propyl]-3-(piperazin-1-yl)pyrazin-2(1H)-one]: the IC50 stood at 4 nM.

With `O=c1c(N2CCNCC2)nc(CCCN[C@@H]2C[C@H]2c2ccc(F)cc2)cn1-c1ccc(-n2ccnn2)cc1` [Example 27, 1-[4-(1H-1,2,3-triazol-1-yl)phenyl]-5-[3-([(1R,2S)-2-(4-fluorophenyl)-cyclopropyl]amino)propyl]-3-[piperazin-1-yl]pyrazin-2(1H)-one], the IC50 worked out at 17 nM.

With `O=c1c(N2CCNCC2)nc(CCCN[C@@H]2C[C@H]2c2ccc(F)cc2)cn1-c1ccc(-c2ncccn2)cc1` [Example 28, 5-[3-([(1R,2S)-2-(4-fluorophenyl)cyclopropyl]amino)propyl]-3-[piperazin-1-yl]-1-[4-(pyrimidin-2-yl)phenyl]pyrazin-2(1H)-one], the IC50 came out at 6 nM.

On to `O=c1c(N2CCNCC2)nc(CCCN[C@@H]2C[C@H]2c2ccc(F)cc2)cn1-c1ccc(-c2cccnn2)cc1` [Example 29, 5-[3-([(1R,2S)-2-(4-fluorophenyl)cyclopropyl]amino)propyl]-3-[piperazin-1-yl]-1-[4-(pyridazin-3-yl)phenyl]pyrazin-2(1H)-one], for which the IC50 was 2 nM.

In the case of `CN(C)S(=O)(=O)c1ccc(-n2cc(CCCN[C@@H]3C[C@H]3c3ccc(F)cc3)nc(N3CCN(S(C)(=O)=O)CC3)c2=O)cc1` [Example 30, 4-[5-(3-[[(1R,2S)-2-(4-Fluorophenyl)cyclopropyl]amino]propyl)-3-(4-methanesulfonylpiperazin-1-yl)-2(1H)-oxopyrazin-1-yl]-N,N-dimethylbenzene-1-sulfonamide], the IC50 amounted to 2 nM.

In the case of `O=c1[nH]cc(CCCN[C@@H]2C[C@H]2c2ccc(F)cc2)nc1N1CCNCC1` [Example 31, 5-[3-([(1R,2S)-2-(4-fluorophenyl)cyclopropyl]amino)propyl]-3-[piperazin-1-yl]pyrazin-2(1H)-one], the IC50 stood at 4 nM.

As to `O=c1[nH]cc(CCCN[C@@H]2C[C@H]2c2ccc(F)cc2)nc1N1CCS(=O)(=O)CC1` [Example 32, 3-[1,1-Dioxidothiomorpholino]-5-[3-([(1R,2S)-2-(4-fluorophenyl)cyclopropyl]amino)propyl]pyrazin-2(1H)-one], the IC50 turned out to be 9 nM.

For `O=c1c(-c2cn[nH]c2)nc(CCCN[C@@H]2C[C@H]2c2ccc(F)cc2)cn1-c1ccc(F)cc1` [Example 36, 1-[4-fluorophenyl]-5-[3-([(1R,2S)-2-(4-fluorophenyl)cyclopropyl]amino)propyl]-3-[1H-pyrazol-4-yl]pyrazin-2(1H)-one], the IC50 was found to be 13 nM.

As to `CN1CCN(c2nc(CCCN[C@@H]3C[C@H]3c3ccc(F)cc3)c[nH]c2=O)CC1=O` [Example 41, 5-[3-([(1R,2S)-2-(4-fluorophenyl)cyclopropyl]amino)propyl]-3-[4-methyl-3-oxopiperazin-1-yl]pyrazin-2(1H)-one], the IC50 stood at 24 nM.

As to `N#Cc1ccc(-n2cc(CCCN[C@@H]3C[C@H]3c3ccc(F)cc3)nc(N3CC4(COC4)C3)c2=O)cc1` [Example 44, 4-[5-(3-[([1R,2S]-2-[4-fluorophenyl]cyclopropyl)amino]propyl)-2-oxo-3-(2-oxa-6-azaspiro[3.3]heptan-6-yl)pyrazin-1(2H)-yl]benzonitrile], the IC50 came out at 6 nM.

Take `O=C1CN(c2nc(CCCN[C@@H]3C[C@H]3c3ccc(F)cc3)cn(Cc3ccccc3)c2=O)CCN1` [Example 46, 1-benzyl-5-[3-([(1R,2S)-2-(4-fluorophenyl)cyclopropyl]amino)propyl]-3-[3-oxopiperazin-1-yl]pyrazin-2(1H)-one]: the IC50 was 7 nM.

Consider `O=C1CN(c2nc(CCCN[C@@H]3C[C@H]3c3ccc(F)cc3)c[nH]c2=O)CCN1` [Example 48, 5-[3-([(1R,2S)-2-(4-fluorophenyl)cyclopropyl]amino)propyl]-3-[3-oxopiperazin-1-yl]pyrazin-2(1H)-one], for which the IC50 was 15 nM.
